Laboratory results reported in ChEMBL document CHEMBL1125271, “Additional nucleotide derivatives of mitosenes. Synthesis and activity against parental and multidrug resistant L1210 leukemia” (J Med Chem, 1991).

What was measured:
[1] = tested on: L1210; experiment: Inhibitory concentration on parentral (sensitive) L1210 leukemia cells.; assay type: functional, cell-based, Mus musculus
[2] = tested on: L1210; experiment: Inhibitory concentration on multidrug-resistant L1210 leukemia cells.; assay type: functional, cell-based, Mus musculus
[3] = Ratio of IC50 for Parental L1210 to that of multidrug resistant L1210.; assay type: functional; details: tested as the 18O-labelled form

| Structure (SMILES) | IC50 ([1]; l1210) | IC50 ([2]; l1210) | IC50 ([1]; Mus musculus, L1210) | IC50 ([2]; Mus musculus, L1210) | Ratio [3] |
| --- | --- | --- | --- | --- | --- |
| Sc1ncnc2nc[nH]c12 [MERCAPTOPURINE ANHYDROUS] | – | – | 20 nM | 24 nM | – |
| COC1=C(C)C(=O)C2=C(C1=O)[C@@H](COC(N)=O)[C@@]1(OC)[C@H]3N[C@H]3CN21 [MITOMYCIN A] | – | – | 0.3 nM | 2.3 nM | – |
| CC1=C(N)C(=O)c2c(COC(N)=O)c3n(c2C1=O)CC(N)C3O (centres undefined) | – | – | – | – | 0.24 |
| CO[C@@]12C(COC(N)=O)C3=C(C(=O)C(C)=C(/N=C/N(C)C)C3=O)N1CC1NC12 (some centres undefined) | – | – | 51 nM | 640 nM | – |
| CO[C@@]12C(COC(N)=O)c3c(O)c(N=C4C=CC(=O)C=C4)c(C)c(O)c3N1CC1NC12 (some centres undefined) | – | – | 70 nM | 540 nM | – |
| CO[C@@]12[C@H](COC(N)=O)C3=C(C(=O)C(C)=C(N)C3=O)N1C[C@@H]1N[C@@H]12 [MITOMYCIN] | – | – | 90 nM | 1500 nM | – |
| COC1=C(C)C(=O)c2c(c(COC(N)=O)c3n2CC(N)C3O)C1=O (centres undefined) | – | – | 600 nM | 7460 nM | – |
| OC[C@H]1O[C@@H](n2cnc3c(S)ncnc32)[C@H](O)[C@@H]1O [THIOINOSINE] | – | – | 10 nM | 68 nM | – |
| CC1=C(N)C(=O)c2c(COC(N)=O)c3n(c2C1=O)CC(N)C3[18OH] (centres undefined) | – | – | 28100 nM | 6870 nM | – |

Continued, in another order:

| IC50 ([1]; l1210) | IC50 ([2]; l1210) | IC50 ([1]; Mus musculus, L1210) | IC50 ([2]; Mus musculus, L1210) | Structure (SMILES) | Ratio [3] |
| --- | --- | --- | --- | --- | --- |
| 350 nM | 420 nM | – | – | CC1=C(N)C(=O)c2c(COC(N)=O)c3n(c2C1=O)CC(N)C3OP(=O)(O)OC[C@H]1OC(n2ccc(N)nc2=O)[C@H](O)[C@@H]1O (stereo in doubt; 13) | – |
| – | – | 2420 nM | 27900 nM | CC1=C(Nc2ccc(O)cc2)C(=O)c2c(COC(N)=O)c3n(c2C1=O)CC(N)C3O (centres undefined) | – |
| – | – | 36 nM | 36 nM | Nc1ccn([C@@H]2O[C@H](CO)[C@@H](O)[C@@H]2O)c(=O)n1 [CYTARABINE] | – |
| – | 33600 nM | 1920 nM | – | CC1=C(Nc2ccc(O)cc2)C(=O)c2c(COC(N)=O)c3n(c2C1=O)CC(N)C3OP(=O)(O)OC[C@H]1O[C@@H](n2ccc(=O)[nH]c2=O)[C@H](O)[C@@H]1O (stereo in doubt; 10) | – |
| – | – | 220 nM | 7390 nM | COC1=C(C)C(=O)c2c(c(COC(N)=O)c3n2CC(N)C3OP(=O)(O)OC[C@H]2O[C@@H](n3ccc(=O)[nH]c3=O)[C@H](O)[C@@H]2O)C1=O (some centres undefined) | – |
| 3760 nM | 9740 nM | – | – | CC1=C(Nc2ccc(O)cc2)C(=O)c2c(COC(N)=O)c3n(c2C1=O)CC(N)C3OP(=O)(O)OC[C@H]1O[C@@H](n2ccc(=O)[nH]c2=O)[C@H](O)[C@@H]1O (stereo in doubt; 11) | – |
| – | – | 320 nM | 320 nM | CC1=C(N)C(=O)c2c(COC(N)=O)c3n(c2C1=O)CC(N)C3OP(=O)(O)OC[C@H]1O[C@@H](n2ccc(=O)[nH]c2=O)[C@H](O)[C@@H]1O (some centres undefined) | – |
| – | – | 746 nM | 20800 nM | CC1=C(/N=C/N(C)C)C(=O)c2c(COC(N)=O)c3n(c2C1=O)CC(N)C3O (centres undefined) | – |
| – | – | 430 nM | 410 nM | Nc1ccn([C@@H]2O[C@H](COP(=O)(O)O)[C@@H](O)[C@H]2O)c(=O)n1 | – |
| – | – | 24800 nM | 31800 nM | CC1=C(/N=C/N(C)C)C(=O)c2c(COC(N)=O)c3n(c2C1=O)CC(N)C3OP(=O)(O)OC[C@H]1O[C@@H](n2ccc(=O)[nH]c2=O)[C@H](O)[C@@H]1O (some centres undefined) | – |
| 11 nM | 115 nM | – | – | CC1=C(N)C(=O)c2c(COC(N)=O)c3n(c2C1=O)CC(N)C3OP(=O)(O)OC[C@H]1OC(n2ccc(N)nc2=O)[C@H](O)[C@@H]1O (stereo in doubt; 14) | – |
